Laboratory results reported in patent US8552041B2, “Therapeutic approaches for treating alzheimer disease and related disorders through a modulation of cell stress response” (Pharnext, priority 2008, dated 2013).

Columns and labels:
[1] = test system: Human Brain Microvascular Endothelial Cells (HBMEC); assay: Capillary network length in human Aβ1-42 intoxicated HBMEC on matrigel; assay type: cell-based; conditions: for Effect on intoxication, total length of capillary network in beta-amyloid intoxicated HBMEC cultures: Aβ1-42 2.5 μM, combination versus each drug alone at the same concentrations, FIGS. 5 and 6
Procedure: Human brain microvascular endothelial cerebral cells (HBMEC, ScienCell Ref: 1000, frozen at passage 10) were rapidly thawed in a waterbath at +37° C. The supernatant was immediately put in 9 ml Dulbecco's modified Eagle's medium (DMEM; Pan Biotech ref: P04-03600) containing 10% of foetal calf serum (FCS; GIBCO ref 10270-106). Cell suspension was centrifuged at 180×g for 10 min at +4° C. and the pellets were suspended in CSC serum-free medium (CSC serum free, Cell System, Ref: SF-4Z0-500-R, Batch 51407-4) with 1.6% of Serum free RocketFuel (Cell System, Ref: SF-4Z0-500-R, Batch 54102), 2% of Penicillin 10.000 U/ml and Streptomycin 10 mg/ml (PS; Pan Biotech ref: P06-07100 batch 133080808) and were seeded at the density of 20 000 cells per well in 96 well-plates (matrigel layer biocoat angiogenesis system, BD, Ref 354150, Batch A8662) in a final volume of 100 μl. On matrigel support, endothelial cerebral cells spontaneously started the process of capillary network morphogenesis (54).
Three separate cultures were performed per condition, 6 wells per condition.
Briefly, Aβ1-42 peptide (Bachem, ref: H1368 batch 1010533) was reconstituted in define culture medium at 20 μM (mother solution) and was slowly shacked at +37° C. for 3 days in. The control medium was prepared in the same conditions.
After 3 days, this human amyloid peptide was used on HBMEC at 2.5 μM diluted in control medium (optimal incubation time). The Aβ1-42 peptide was added 2 hours after HBMEC seeding on matrigel for 18 hours incubation.
One hour after HBMEC seeding on matrigel, test compounds and VEGF-165 were solved in culture medium (+0.1% DMSO) and then pre-incubated with HBMEC for 1 hour before the Aβ1-42 application (in a final volume per culture well of 100 μl).
VEGF-165, known to be a pro-angiogenic isoform of VEGF-A, was used for all experiments in this study as reference compound.
The following conditions were assessed: • Negative Control: medium alone+0.1% DMSO • Intoxication: amyloid-β1-42 (2.5 μM) for 18 h • Positive control: VEGF-165 (10 nM) (1 reference compound/culture) 1 hr before the Aβ1-42 (2.5 μM) addition for a 18 h incubation time. • Test compounds: Test compound I hr before the Aβ1-42 (2.5 μM) addition for a 18 h incubation time. Capillary Network Quantification
Per well, 2 pictures with 4× lens were taken using InCell Analyzer™ 1000 (GE Healthcare) in light transmission. All images were taken in the same conditions. Analysis of the angiogenesis networks was done using Developer software (GE Healthcare). The total length of capillary network was assessed.
All values are expressed as mean±s.e.mean of the 3 cultures (n=6 per condition). […] Indeed, the amyloid toxicity was taken as the 100% and the test compound effect was calculated as a % of this amyloid toxicity. […]

[2] = test system: rat primary cortical neuron culture; assay: LDH release in Aβ25-35 intoxicated rat primary cortical neuron culture; assay type: cell-based; conditions: Aβ25-35 20 μM, 2 days; drug pre-incubated 1 h; FIG. 2
Procedure: Primary rat cortical neurons are cultured as described by Singer et al., 1999. Briefly pregnant female rats of 15 days gestation are killed by cervical dislocation (Rats Wistar; Janvier) and the foetuses removed from the uterus. The cortex are removed and placed in ice-cold medium of Leibovitz (L15; Invitrogen) containing 1% of Penicillin-Streptomycin (PS; Invitrogen) and 1% of bovine serum albumin (BSA; Sigma). Cortex are dissociated by trypsinisation for 20 min at 37° C. (Trypsin EDTA 1×; Invitrogen) diluted in PBS without calcium and magnesium. The reaction is stopped by the addition of Dulbecco's modified Eagle's medium (DMEM; Invitrogen) containing DNAase I grade II (0.1 mg/ml; Roche Diagnostic) and 10% of foetal calf serum (FCS; Invitrogen). Cells are then mechanically dissociated by 3 passages through a 10 ml pipette. Cells are then centrifuged at 180×g for 10 min at 10° C. The supernatant is discarded and the cells of pellet are re-suspended in a defined culture medium consisting of Neurobasal (Invitrogen) supplemented with B27 (2%; Invitrogen), L-glutamine (0.2 mM; Invitrogen), 1% of PS solution and 10 ng/ml of Brain-derived neurotrophic factor (BDNF, Pan Biotech). Viable cells are counted in a Neubauer cytometer using the trypan blue exclusion test. Cells are seeded at a density of 30 000 cells/well in 96 well-plates (wells are pre-coated with poly-L-lysine (10 ng/ml; Sigma)) and are cultured at 37° C. in a humidified air (95%)/CO2 (5%) atmosphere.
After 6 days of culture, cells are incubated with drugs (5 concentrations). After 1 hour, cells are intoxicated by 20 μM of β-amyloid (25-35; Sigma) in defined medium without BDNF but together with drugs. Cortical neurons are intoxicated for 2 days. BDNF (10 ng/ml) is used as a positive (neuroprotective) control.
After 2 days of culture, the supernatant is collected and analyzed with Cytotoxicity Detection Kit (LDH, Roche Applied Sciences). This colorimetric assay for the quantification of cell death is based on the measurement of lactate dehydrogenase (LDH) activity released from the cytosol of damaged cells into the supernatant. The optic density (DO) is assessed by spectrophotometer at 492 nm wavelength by a multiscan apparatus (Thermo, Ref Ascent). Results are expressed in percentage of cell viability, compared to the negative control (vehicle).
Results presented in FIGS. 1 and 2 are extracted from two independent cultures, 6 wells per condition. All values are expressed as mean±s.e.mean. A bilateral Student's t test analysis is performed on raw data. […]
Rat primary cortical neurons are incubated with drugs one hour before Aβ25-35 20 μM intoxication that lasts 2 days. Two days after this incubation, LDH release in the culture medium is quantified, reflecting the level of cell death.

NGF-differentiated PC12 = assay: MTT viability of NGF-differentiated PC12 cells after Abeta25-35 intoxication; assay type: cell-based, Rat; conditions: Abeta25-35 10 μM, 24 h; drug pre-incubated 1 h; FIG. 1
Procedure: PC12 (Pheochromocytoma Rat, ATCC ref: CRL-1721) cells from [NT] CRL-1721) were rapidly thawed in 37° C. water. The supernatant was immediately put in 9 ml of a “PC12 proliferation medium” containing Dulbecco's modified Eagle's medium DMEM-F12 (Pan Biotech ref: P04-41450) with 15% heat-inactivated horse serum (Invitrogen ref: 16050-130), 2.5% of fetal bovine serum (FBS; Invitrogen ref: 16000-036), 1% of Penicillin 10.000 U/ml and Streptomycin 10 mg/ml (PS; Pan Biotech ref: P06-07100) and 1% de L-glutamine 200 mM (Pan Biotech ref: P04-80100). Cells were centrifuged (800 rounds/min, 4° C. for 5 min) and added in 5 ml “PC12 proliferation medium”, viable cells were counted with a Malassez cell using the neutral red exclusion test (Sigma). Then the cells were seeded at 3·10^4 cells per cm^2 in “PC12 proliferation medium” in 75 cm^2 plastic flasks (Greiner Ref: 658175) precoated with poly-L-lysine (10 μg/ml, Sigma Ref: P2636). Medium was changed every other day. After 3 days of culture, when cells reached 80% of confluence, they were washed in HBSS without calcium and magnesium (Pan Biotech Ref: P06-33500) and incubated in trypsin EDTA, (0.05%, Pan Biotech Ref: P10-023100). The enzymatic reaction was stopped with PC12 proliferation medium added by 0.5 mg/ml of DNAse 1 grade 2 (Pan Biotech Ref: T60-37780100). […]

[3] = test system: rat primary cortical neuron cells; assay: LDH release in human Aβ1-42 intoxicated rat primary cortical neuron culture; assay type: cell-based; conditions: human Aβ1-42 10 μM, 24 h; 1 hr pre-treatment; FIG. 4
Procedure: Primary rat cortical neurons are cultured as described previously.
The control medium was prepared in the same conditions.
Cortical neurons were intoxicated for 24 hours. Three separate cultures were performed per condition, 6 wells per condition.
This colorimetric assay for the quantification of cell toxicity is based on the measurement of lactate dehydrogenase (LDH) activity released from the cytosol of dying cells into the supernatant.
All values are expressed as mean±s.e.mean of the 3 cultures (n=6 per condition).

Molecule	Effect on intoxication, total length of capillary network in beta-amyloid intoxicated HBMEC cultures [1]	Prevention of Aβ25-35 intoxication, LDH release in rat primary cortical neurons [2]	further results
CN(C/C=C/C#CC(C)(C)C)Cc1cccc2ccccc12 [Terbinafine]	no significant effect		
Cc1oncc1C(=O)Nc1ccc(C(F)(F)F)cc1 [Leflunomide]		significantly prevented	
C[C@@H]1CC(=O)NN=C1c1ccc(NN=C(C#N)C#N)cc1 [Levosimendan]	no significant effect		
Cc1noc(NS(=O)(=O)c2ccc(N)cc2)c1C [Sulfisoxazole]	no significant effect	significantly prevented	Prevention of human Aβ1-42 injury in HBMEC (capillary network), single drug ([1]; human Aβ1-42 2.5 μM, 18 h, 1 hr pre-treatment, FIG. 3B): significantly prevented
CCCNC(C)C(=O)Nc1ccccc1C (centres unmarked) [Prilocaln, Prilocaine]			Prevention of Abeta25-35 intoxication, viability of NGF-differentiated PC12 (MTT) (NGF-differentiated PC12): significantly prevented
CN1CC(=O)N2[C@H](c3ccc4c(c3)OCO4)c3[nH]c4ccccc4c3C[C@@H]2C1=O [Tadalafil]			LDH release compared to amyloid intoxication [3]: −57%
NS(=O)(=O)Cc1noc2ccccc12 [Zonisamide]		significantly prevented	
BDNF: Brain-derived neurotrophic factor, positive (neuroprotective) control (protein, UniProt P23560 19-247, looked up) Neurotrophic factor BDNF …: APMKEANIRGQGGLAYPGVRTHGTLESVNGPKAGSRGLTSLADTFEHVIEELLDEDQKVRPNEENNKDADLYTSRVMLSSQVPLEPPLLFLLEEYKNYLDAANMSMRVRRHSDPARRGELSVCDSISEWVTAADKKTAVDMSGGTVTVLEKVPVSKGQLKQYFYETKCNPMGYTKEGCRGIDKRHWNSQCRTTQSYVRALTMDSKKRIGWRFIRIDTSCVCTLTIKRGR		efficiently prevented	LDH release compared to amyloid intoxication [3]: −95%
